Test results taken from paper PMC5620575 (Pharmaceutics, 2017).
Converted amounts (≈) assume the structure as drawn.

Columns and labels:
[1] = humans; cited from earlier work
[2] = tissue to plasma distribution; assay type: in vivo; conditions: New Zealand White, rabbit, in vivo, 2 x 10 mg/kg IV, 2 h after second dose, n = 3, read-out: Tissue to Plasma Concentration Ratio, Kidney
Experimental: Three groups of White New Zealand rabbits (n = 3, each) weighing 3.0–3.5 kg were used. Each group received 10 mg/kg of one compounds administered intravenously over a period of 3–5 min, followed one hour later by a second IV dose of 10 mg/kg. Two h later, the rabbits were euthanized with an IV dose of pentobarbital. Plasma and tissue samples, including kidney, liver, lungs, spleen, heart, muscles, and vetrus fluid were collected immediately, and stored at −80 °C until analysis.
Plasma ultra-filtrate samples were analyzed using the same procedures for the plasma. Tissue homogenates were prepared by adding 1 gm of the tissues samples to 4 g of phosphate buffer, pH 7.4 (1:4, w/w), then homogenization using Tissue-Tearor, Bio-Spec Products Inc. (Bartlesville, OK, USA). Aliquots of 200 μL of tissue homogenate samples were analyzed using the procedures for the plasma and the concentrations were determined using plasma calibrators as described and validated previously for Lzd and PH027 [18].
The tissue to plasma concentration ratios for the three compounds were calculated from the ratio of the tissue homogenate concentrations corrected for the dilution during the homoginization process and the plasma concentrations. Generally, the three compounds have very good distribution to all tissues. The tissue to plasma distribution ratios for the novel compounds were more than one in kidney, lung, liver, heart, muscles and spleen, and the ratios were more than those for Lzd in all investigated tissues. Table 3, summerizes the tissue to plasma distribution ratios for the three compounds in different tissues.

[3] = pharmacokinetics after single oral administration as suspension; assay type: in vivo; conditions: New Zealand White, plasma, rabbit, 20 mg/kg, n = 4
Experimental: The pediatric feeding tube was pushed until it reached the stomach.
Three groups of rabbits (n = 4, each) received 20 mg/kg oral dose of each compound. […] Accurately weighted amounts of each compound were dissolved/suspended in 20 mL of warm normal saline using an ultrasound water bath. […] The solutions/suspensions of the three compounds were administered orally to the rabbits using a pediatric feeding tubes. After oral administration of each compound, serial blood samples were obtained through the IV catheter, over a period of 10 h after administration. Plasma was obtained from blood by centrifugation, and samples were kept at −80 °C until analysis.
(§1) The pharmacokinetic parameters for each of the three compounds including half-life (t1/2), volume of distribution (Vd), elimination rate constant (k), area under the plasma concentration-time curve (AUC), total body clearance (CLT), renal clearance (CLR), and oral bioavailability (F) were determined using the general pharmacokinetic parameter calculation procedures using PKPD tools for Microsoft Excel. The obtained pharmacokinetic parameters for each compound were compared using Statistical Package of Social Sciences (SPSS) to determine the difference in the pharmacokinetic behavior for the three compounds.

[4] = system: Staphylococcus aureus and Enterococci spp; set-up: method as in PMID 12467705, PMID 15911326, PMID 17140706, PMID 19376613, PMID 23811087; conditions: clinical isolates; cited from earlier work
[5] = weak base; reported, no reference given; cited from earlier work
[6] = system: S. aureus Giorgio; set-up: method as in ref unpublished data from Jin-Hwan Kwak at Handong Global University; conditions: oral suspension 1 and 4 h after infection, survival recorded for 72 h; ref unpublished data from Jin-Hwan Kwak at Handong Global University; cited from earlier work
[7] = system: Moraxella catarrhalis; set-up: method as in PMID 12467705, PMID 15911326, PMID 17140706, PMID 19376613, PMID 23811087; conditions: cited from earlier work
[8] = system: Escherichia coli; set-up: method as in PMID 12467705, PMID 15911326, PMID 17140706, PMID 19376613, PMID 23811087; conditions: cited from earlier work
[9] = pharmacokinetics after single oral administration as microemulsion; assay type: in vivo; conditions: New Zealand White, plasma, rabbit, 20 mg/kg, n = 3
Experimental: Three groups of rabbits (n = 3, each) received 20 mg/kg oral dose of each compound in the form of microemulsion through a pediatric feeding tube. After administration, serial blood samples were obtained through the IV catheter, over a period of 10 h. Plasma was obtained from blood by centrifugation, and samples were kept at −80 °C until analysis.
as §1

[10] = pharmacokinetics after single IV administration; assay type: in vivo; conditions: rabbit, 5 mg/kg
From the text: IV administration of the compounds under investigation, and collection of blood samples were through a catheter inserted in the marginal ear vein of the rabbit (I-Cath, CharterMed Inc., Winston-Salem, NC, USA). After IV drug administration, blood was withdrawn to fill the cannula and then reinjected three times before obtaining any blood samples to prevent contamination. Furthermore, the cannula was flushed with heparinized saline to prevent blockage of the cannula and prevent sample to sample contamination.
Urine samples were collected utilizing Foly Catheter (size French 8). The catheter was inserted into the rabbit bladder using a lubricant. When urine is collected over a specific time interval, the bladder was irrigated with 3 × 15 mL normal saline at 3 min, 6 min, and 10 min before the end of the urine collection interval [15, 16]. Irrigation of the bladder is necessary to obtain the majority of the drug eliminated in urine during the collection interval.
Three groups of rabbits (n = 4, each) received 5 mg/kg dose of each compound via the IV catheter. This dose was selected based on the results of a preliminary experiment to achieve measurable plasma concentrations for 8 h using our analytical methods, to ensure good characterization of the plasma concentration-time profile. Accurately weighed Lzd and PH027 powder were dissolved first in 600 μL of ethanol using an ultrasound water bath. The resulting solution was then diluted with normal saline to produce the solutions used for IV administration, which consist of the dose of the compound dissolved in 3 mL of 20% ethanol in normal saline. PH051 required the use of slightly larger volume of ethanol to achieve complete dissolution. So, 900 μL of ethanol were used, and the resulting solution used for IV administration consisted of PH051 dose dissolved in 3 mL of 30% ethanol in normal saline. The difference in the volume of ethanol administered, 300 μL, which was necessary to ensure complete dissolution of PH051, should not have a significant effect on the pharmacokinetic behavior of PH051. The solutions were administered slowly over a period of […] administration, serial blood and urine samples were obtained over a period of 8 h. Plasma was obtained from blood by centrifugation, and samples were kept at −80 °C until analysis. The volumes of urine samples were determined and recorded, and aliquots were kept at −80 °C until analysis.
as §1

[11] = system: Streptococcus pneumoniae; set-up: method as in PMID 12467705, PMID 15911326, PMID 17140706, PMID 19376613, PMID 23811087; conditions: cited from earlier work
[12] = set-up: method as in unpublished data from our laboratory; conditions: rabbit urine after IV administration; ref unpublished data from our laboratory; cited from earlier work
[13] = set-up: method as in ref 25 = [25]; 25. ZYVOXAM ® Product Monograph Pfizer Canada Inc. Kirkland, QC, Canada 2015; conditions: humans; cited from earlier work
[14] = system: Heamophilus influenzae; set-up: method as in PMID 12467705, PMID 15911326, PMID 17140706, PMID 19376613, PMID 23811087; conditions: unit printed only for the neighbouring MICs of the sentence; cited from earlier work
[15] = White New Zealand, plasma, n = 4

In the case of `CC(=O)NC[C@H]1CN(c2ccc(N3CCOCC3)c(F)c2)C(=O)O1` [Linezolid, reference compound], the plasma protein binding [1] is given as 30%, the Kp at 2 h [2] is given as 2.05 ± 0.067 and the AUC [3] is given as 6250 ± 3620 ng·h/mL. For the same molecule, the Cmax [3] was 3910 ± 1010 ng/mL, the Tmax [3] was 60 min and the MIC [4] was 0.5 to 1.0 µg/mL. The pKa [5] was 1.4, the “in vivo activity against systemic mice infection” value [6] was “better than the in vivo activity of the novel triazolyl-oxazolidinone derivatives” and the MIC [7] was 8.0 µg/mL (≈ 23.7 µM). The MIC [8] was greater than 64 µg/mL, the AUC [9] was 8350 ± 3340 ng·h/mL and the Cmax [9] was 3410 ± 1800 ng/mL. It also gave a Tmax [9] of 45 min, an AUC [10, 15] of 4040 ± 1280 ng·h/mL and a half-life [10, 15] of 52.4 ± 6.3 min. For the same molecule, the k el ([10]; White New Zealand, plasma, n = 4, read-out: Elimination rate constant (converted)) was 0.00022 s⁻¹, the CL renal ([10]; White New Zealand, urine and plasma, from renal excretion rate and plasma drug concentration, read-out: Renal clearance (converted)) was 1.38 mL/min/kg and the CLT ([10]; n = 4) was 20.7 ± 7.17 mL/min/kg. The “Fraction excreted unchanged in urine” value ([10]; ratio of renal clearance to total body clearance) was 5.70%, the MIC [11] was 0.5 µg/mL (≈ 1.48 µM) and the main metabolic route [12] was “metabolized mainly through oxidation”. For the same molecule, the “dose excretion in urine” value [13] was 30% and the MIC [14] was 8 µg/mL (≈ 23.7 µM).
